Source: PubChem BioAssay AID330 (DTP/NCI, 2004)
Where “and” joins values, the source holds several entries; their conditions need not be identical. Identical values can stand only once. Toxic doses and inconclusive results are not listed.

Tested on: P388 leukemia ip, CD2F1 mice, survival T/C
Assay: NCI In Vivo Anticancer Drug Screen. Data for tumor model P388 Leukemia (intraperitoneal) in CD2F1 (CDF1) mice
Conditions: endpoint: median survival time, higher = longer survival
Method in brief: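 Mice carrying the transplanted tumor received test compound or vehicle. Survival was recorded in each group, and the value is the treated-group measurement divided by that of the vehicle-treated control group.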

[1] = dose: 100.0 mg/kg/injection, schedule: Q01DX009 (ip), vehicle: Klucel (hydroxypropylcellulose) (HPC)
[2] = dose: 200.0 mg/kg/injection, schedule: Q01DX009 (ip), vehicle: Klucel (hydroxypropylcellulose) (HPC)
[3] = dose: 12.5 mg/kg/injection, schedule: Q01DX005 (ip), vehicle: saline
[4] = dose: 25.0 mg/kg/injection, schedule: Q01DX005 (ip), vehicle: saline
[5] = dose: 50.0 mg/kg/injection, schedule: Q01DX005 (ip), vehicle: saline
[6] = dose: 25.0 mg/kg/injection, schedule: Q01DX009 (ip), vehicle: saline with Tween-80
[7] = dose: 50.0 mg/kg/injection, schedule: Q01DX009 (ip), vehicle: saline with Tween-80
[8] = dose: 100.0 mg/kg/injection, schedule: Q01DX009 (ip), vehicle: saline with Tween-80
[9] = dose: 200.0 mg/kg/injection, schedule: Q01DX009 (ip), vehicle: saline with Tween-80
[10] = dose: 60.0 mg/kg/injection, schedule: Q01DX005 (ip), vehicle: saline with Tween-80
[11] = dose: 120.0 mg/kg/injection, schedule: Q01DX005 (ip), vehicle: saline with Tween-80
[12] = dose: 240.0 mg/kg/injection, schedule: Q01DX005 (ip), vehicle: saline with Tween-80
[13] = dose: 100.0 mg/kg/injection, schedule: Q01DX005 (ip), vehicle: saline
[14] = dose: 200.0 mg/kg/injection, schedule: Q01DX005 (ip), vehicle: saline
[15] = dose: 25.0 mg/kg/injection, schedule: Q01DX001 (ip), vehicle: Klucel (hydroxypropylcellulose) (HPC)
[16] = dose: 50.0 mg/kg/injection, schedule: Q01DX001 (ip), vehicle: Klucel (hydroxypropylcellulose) (HPC)
[17] = dose: 100.0 mg/kg/injection, schedule: Q01DX001 (ip), vehicle: Klucel (hydroxypropylcellulose) (HPC)
[18] = dose: 50.0 mg/kg/injection, schedule: Q01DX005 (ip), vehicle: Klucel (hydroxypropylcellulose) (HPC)
[19] = dose: 100.0 mg/kg/injection, schedule: Q01DX005 (ip), vehicle: Klucel (hydroxypropylcellulose) (HPC)
[20] = dose: 200.0 mg/kg/injection, schedule: Q01DX005 (ip), vehicle: Klucel (hydroxypropylcellulose) (HPC)

With `CCOC(=O)Nc1cc(NC(C)/C(=N/O)c2ccccc2)c([N+](=O)[O-])c(N)n1` (configuration not stated) the T/C (dose: 60.0 mg/kg/injection, schedule: Q01DX005 (ip), vehicle: Klucel (hydroxypropylcellulose) (HPC)) was 157 % of control and 176 % of control, the T/C (dose: 120.0 mg/kg/injection, schedule: Q01DX005 (ip), vehicle: Klucel (hydroxypropylcellulose) (HPC)) was 166 % of control and 186 % of control and the T/C (dose: 240.0 mg/kg/injection, schedule: Q01DX005 (ip), vehicle: Klucel (hydroxypropylcellulose) (HPC)) was 174 % of control and 180 % of control.

For `CN(C)CNC(=O)c1ccccc1`, the T/C (dose: 1.25 mg/kg/injection, schedule: Q01DX009 (ip), vehicle: water) was 99 % of control, the T/C (dose: 2.5 mg/kg/injection, schedule: Q01DX009 (ip), vehicle: water) was 121 % of control and the T/C (dose: 5.0 mg/kg/injection, schedule: Q01DX009 (ip), vehicle: water) was 99 % of control. The T/C (dose: 10.0 mg/kg/injection, schedule: Q01DX009 (ip), vehicle: water) was 100 % of control and the T/C (dose: 20.0 mg/kg/injection, schedule: Q01DX009 (ip), vehicle: water) was 99 % of control.

For `O=S(=O)(OCC(COS(=O)(=O)c1ccccc1)(OS(=O)(=O)c1ccccc1)OS(=O)(=O)c1ccccc1)c1ccccc1`, the T/C [1] was 105 % of control, the T/C [2] was 104 % of control and the T/C (dose: 400.0 mg/kg/injection, schedule: Q01DX009 (ip), vehicle: Klucel (hydroxypropylcellulose) (HPC)) was 100 % of control.

With `COc1ccc2c(c1)[C@]1(C)CCN(C)[C@@H]1N2C` the T/C [3] was 105 % of control, the T/C [4] was 98 % of control and the T/C [5] was 105 % of control.

`COC(=O)[CH2][Sn]([CH3])([CH3])[CH2]C(=O)OC` was tested, and the T/C [3] was 114 % of control, the T/C [4] was 124 % of control and the T/C [5] was 123 % of control.

With `O=C(Nc1ccccc1O)C1C(=O)C(=O)N(c2ccccc2O)C1=O` (configuration not stated) the T/C [6] was 97 % of control, the T/C (dose: 50.0 mg/kg/injection, schedule: Q01DX009 (ip), vehicle: Klucel (hydroxypropylcellulose) (HPC)) was 101 % of control and 105 % of control and 107 % of control and the T/C [7] was 105 % of control. For the same molecule, the T/C [1] was 99 % of control and 101 % of control (2×), the T/C [8] was 97 % of control and the T/C [2] was 106 % of control. The T/C [9] was 102 % of control.

With `Cc1cn(C2OC(CO)C(O)C2O)c(=O)nc1N` (configuration not stated) the T/C (dose: 25.0 mg/kg/injection, schedule: Q01DX005 (ip), vehicle: water) was 104 % of control, the T/C (dose: 50.0 mg/kg/injection, schedule: Q01DX005 (ip), vehicle: water) was 101 % of control and the T/C (dose: 100.0 mg/kg/injection, schedule: Q01DX005 (ip), vehicle: water) was 100 % of control. For the same molecule, the T/C (dose: 200.0 mg/kg/injection, schedule: Q01DX005 (ip), vehicle: water) was 96 % of control.

In the case of `O=C1NC(=O)N(/N=C/c2ccc(-c3ccc(Cl)c(Cl)c3)o2)C1O` (configuration not stated), the T/C (dose: 50.0 mg/kg/injection, schedule: Q04DX002 (ip), vehicle: saline with Tween-80) is reported as 100 % of control, the T/C (dose: 100.0 mg/kg/injection, schedule: Q04DX002 (ip), vehicle: saline with Tween-80) is reported as 99 % of control and the T/C (dose: 200.0 mg/kg/injection, schedule: Q04DX002 (ip), vehicle: saline with Tween-80) is reported as 101 % of control.

In the case of `COc1ccc(OC)c2c1CCC(O)(C#N)C2` (configuration not stated), the T/C (dose: 3.13 mg/kg/injection, schedule: Q01DX009 (ip), vehicle: other) is reported as 100 % of control and 101 % of control, the T/C (dose: 6.25 mg/kg/injection, schedule: Q01DX009 (ip), vehicle: other) is reported as 100 % of control and 102 % of control and the T/C (dose: 12.5 mg/kg/injection, schedule: Q01DX009 (ip), vehicle: other) is reported as 101 % of control.

`COc1ccc(C2=C(Cl)C(=O)N(c3ccccc3)C(=O)C2(Cl)Cl)cc1` was tested, and the T/C (dose: 100.0 mg/kg/injection, schedule: Q04DX002 (ip), vehicle: Klucel (hydroxypropylcellulose) (HPC)) was 103 % of control, the T/C (dose: 200.0 mg/kg/injection, schedule: Q04DX002 (ip), vehicle: Klucel (hydroxypropylcellulose) (HPC)) was 107 % of control and the T/C (dose: 400.0 mg/kg/injection, schedule: Q04DX002 (ip), vehicle: Klucel (hydroxypropylcellulose) (HPC)) was 107 % of control.

In the case of `O=[N+]([O-])c1ccc(C(Cl)Cc2ccc(Cl)cc2)cc1` (configuration not stated), the T/C [10] is reported as 102 % of control, the T/C [11] is reported as 90 % of control and the T/C [12] is reported as 94 % of control.

For `CCCCCC1NC(C)(C)CO1` (configuration not stated), the T/C [5] was 118 % of control, the T/C [13] was 109 % of control and the T/C [14] was 100 % of control.

For `N#CC1C(C#N)C2(c3ccccc3)C(c3ccccc3)=NN(c3ccccc3)CC12` (configuration not stated), the T/C [15] was 91 % of control, the T/C [16] was 95 % of control and the T/C [17] was 87 % of control.

`NCCCCCCN1CCN(c2cccc(Cl)c2)CC1` was tested, and the T/C (dose: 50.0 mg/kg/injection, schedule: Q01DX009 (ip), vehicle: saline) was 103 % of control and 97 % of control, the T/C (dose: 100.0 mg/kg/injection, schedule: Q01DX009 (ip), vehicle: saline) was 114 % of control and 98 % of control and the T/C (dose: 200.0 mg/kg/injection, schedule: Q01DX009 (ip), vehicle: saline) was 123 % of control.

With `CC1=CC(C)(C)N(C)C(N)=N1` the T/C [3] was 100 % of control, the T/C [4] was 91 % of control and the T/C [5] was 91 % of control.

For `COC(=O)C1=NC(=S)N=C(C(=O)OC)C1(C)C(=O)c1ccc(Cl)cc1`, the T/C [10] was 95 % of control, the T/C [11] was 99 % of control and the T/C [12] was 94 % of control.

With `OCC(O)c1c(-c2ccccc2)c(-c2ccccc2)c2n1CCC2` (configuration not stated) the T/C [18] was 96 % of control, the T/C [19] was 93 % of control and the T/C [20] was 92 % of control.

For `N=C(N)c1ccc(N=Nc2c(O)c(C(=O)Nc3ccccc3)cc3ccccc23)cc1`, the T/C [18] was 100 % of control, the T/C [19] was 101 % of control and the T/C [20] was 100 % of control.

For `CC(=O)CC(=O)Cc1oc2c(C(C)=O)c(O)c(C)c(O)c2c1C`, the T/C [6] was 90 % of control, the T/C [7] was 90 % of control and the T/C [8] was 88 % of control. For the same molecule, the T/C [9] was 90 % of control.

`CCP(=O)(CC)CC` was tested, and the T/C [4] was 98 % of control, the T/C [5] was 105 % of control and the T/C [13] was 99 % of control. For the same molecule, the T/C [14] was 99 % of control and the T/C (dose: 400.0 mg/kg/injection, schedule: Q01DX005 (ip), vehicle: saline) was 99 % of control.

With `O=C1C2C3C=CC(C2C(=O)N1CN1CCOCC1)C1C2C(=O)N(CN4CCOCC4)C(=O)C2C31` (configuration not stated) the T/C [6] was 120 % of control.

For `CC(=O)c1ccc(N=C2C(=O)Nc3ccccc32)cc1`, the T/C (dose: 12.5 mg/kg/injection, schedule: Q01DX009 (ip), vehicle: saline with Tween-80) was 93 % of control, the T/C [6] was 87 % of control and the T/C [7] was 89 % of control and 96 % of control. For the same molecule, the T/C [8] was 105 % of control and the T/C [9] was 116 % of control.

For `Cc1nc(Br)c(Br)n1Cc1ccccc1`, the T/C [10] was 99 % of control, the T/C [11] was 99 % of control and the T/C [12] was 105 % of control.

`CCCCn1[nH]nc(C(=O)OC)c1=O` (tested in a mixture with another compound) was tested, and the T/C [5] was 105 % of control, the T/C [13] was 102 % of control and the T/C [14] was 94 % of control.

With `O=C(NCCCBr)c1csc(-c2csc(CCNC(=O)C(F)(F)F)n2)n1` the T/C (dose: 6.25 mg/kg/injection, schedule: Q01DX005 (ip), vehicle: saline with Tween-80) was 89 % of control, the T/C (dose: 12.5 mg/kg/injection, schedule: Q01DX005 (ip), vehicle: saline with Tween-80) was 104 % of control and the T/C (dose: 25.0 mg/kg/injection, schedule: Q01DX005 (ip), vehicle: saline with Tween-80) was 95 % of control. The T/C (dose: 50.0 mg/kg/injection, schedule: Q01DX005 (ip), vehicle: saline with Tween-80) was 97 % of control, the T/C (dose: 100.0 mg/kg/injection, schedule: Q01DX005 (ip), vehicle: saline with Tween-80) was 90 % of control and the T/C (dose: 200.0 mg/kg/injection, schedule: Q01DX005 (ip), vehicle: saline with Tween-80) was 87 % of control.

`COC(=O)C(O)(/C(=N\O)c1ccccc1)c1ccccc1` (configuration not stated) was tested, and the T/C [10] was 97 % of control and the T/C [11] was 90 % of control.

For `O=C1C(Cl)=C(Cl)C(Cl)(Cl)C(Cl)=C1Cl`, the T/C [15] was 99 % of control, the T/C [16] was 93 % of control and the T/C [17] was 93 % of control.

In the case of `CCC(/C=C/c1ccc(C)cc1)=N\NC(=O)c1ccccc1`, the T/C [10] is reported as 98 % of control, the T/C [11] is reported as 89 % of control and the T/C [12] is reported as 90 % of control.

For `Cc1ccc(C2C=CC(C#N)=CN2Cc2ccccc2)cc1` (configuration not stated), the T/C [18] was 99 % of control, the T/C [19] was 104 % of control and the T/C [20] was 101 % of control.

For `COC1=CC(=O)C(Cc2ccc3c(c2)OCO3)=CC1=O`, the T/C (dose: 2.5 mg/kg/injection, schedule: Q01DX009 (ip), vehicle: saline with Tween-80) was 101 % of control, the T/C (dose: 5.0 mg/kg/injection, schedule: Q01DX009 (ip), vehicle: saline with Tween-80) was 99 % of control and the T/C (dose: 10.0 mg/kg/injection, schedule: Q01DX009 (ip), vehicle: saline with Tween-80) was 101 % of control.
